Data: PubChem BioAssay (NCI)
Several values for one entry are separate records, joined by “and”; a condition that tells them apart may be missing. Equal values may be shown once.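 48-hour exposure; five concentrations; linearly interpolated endpoints. At the GI50, growth is halved. TGI denotes the concentration required for complete inhibition of growth.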

Assays:
Assay in all cases: DTP human tumour cell line panel, 48 h
[1] = test system: MALME-3M melanoma
[2] = test system: NCI-H226 lung
[3] = test system: SNB-19 CNS
[4] = test system: COLO 205 colon
[5] = test system: SK-OV-3 ovarian
[6] = test system: UACC-257 melanoma
[7] = test system: PC-3 prostate
[8] = test system: IGROV1 ovarian

CC(C(=O)O)c1ccc(-c2ccccc2)c(F)c1 (stereo not given)
TGI [1]: > 100 µM | TGI [2]: > 100 µM | TGI [3]: > 100 µM | TGI [4]: > 100 µM | TGI [5]: > 100 µM | TGI [6]: > 100 µM | TGI [7]: > 100 µM | TGI [8]: > 100 µM

CCCCCCNC(=O)n1cc(F)c(=O)[nH]c1=O
GI50 [2]: 10.6 µM | TGI [2]: 23.3 µM | GI50 [3]: 7.48 µM | TGI [3]: 56.3 µM | GI50 [4]: 2.09 µM | TGI [4]: 18.4 µM | GI50 [5]: 11.1 µM | TGI [5]: 91.1 µM | GI50 [6]: 4.22 µM | TGI [6]: 26.4 µM | GI50 [7]: 10.1 µM | TGI [7]: 27.3 µM

Oc1c(Cl)cc(Cl)cc1Sc1cc(Cl)cc(Cl)c1O
GI50 [1]: 3.32 µM and 2.51 µM | TGI [1]: 13.7 µM and 6.83 µM | GI50 [2]: 3.1 µM and 2.26 µM | TGI [2]: 15 µM and 6.76 µM | GI50 [3]: 4.84 µM and 3.23 µM | TGI [3]: 32.2 µM and 14.2 µM | GI50 [4]: 2.22 µM and 1.67 µM | TGI [4]: 5.23 µM and 3.03 µM | GI50 [5]: 2.66 µM | TGI [5]: 7.04 µM | GI50 [6]: 2.65 µM and 1.94 µM | TGI [6]: 7.86 µM and 5.71 µM | GI50 [7]: 3.21 µM and 2.89 µM | TGI [7]: 10.5 µM and 12.9 µM | GI50 [8]: 6.03 µM and 2.97 µM | TGI [8]: 26.2 µM and 15 µM

Cc1nn(CNc2ccccc2C(F)(F)F)c(=S)n1/N=C/c1ccc(F)cc1
GI50 [1]: > 100 µM | TGI [1]: > 100 µM | GI50 [2]: 43.7 µM | TGI [2]: > 100 µM | GI50 [3]: 94 µM | TGI [3]: > 100 µM | GI50 [4]: 53.2 µM | TGI [4]: > 100 µM | GI50 [5]: > 100 µM | TGI [5]: > 100 µM | GI50 [6]: 59.2 µM | TGI [6]: > 100 µM | GI50 [7]: 97.9 µM | TGI [7]: > 100 µM | GI50 [8]: > 100 µM | TGI [8]: > 100 µM

COC(=O)[C@H]1[C@H]2C[C@@H]3c4[nH]c5cc(OC)ccc5c4CCN3C[C@H]2C[C@@H](OC(=O)/C=C/c2cc(OC)c(OC)c(OC)c2)[C@@H]1OC
GI50 [1]: 18.7 µM | TGI [1]: 50.6 µM | GI50 [2]: 26.7 µM | TGI [2]: > 100 µM | GI50 [3]: 6.46 µM | TGI [3]: > 100 µM | GI50 [4]: 3.69 µM | TGI [4]: 14.8 µM | GI50 [5]: 15.4 µM | TGI [5]: 32.3 µM | GI50 [6]: 18.4 µM | TGI [6]: 68.1 µM | GI50 [7]: 6.91 µM | TGI [7]: > 100 µM | GI50 [8]: 6.72 µM | TGI [8]: 34.6 µM

CC(C)(C)n1cc(-c2ccnc(NCCCNS(=O)(=O)c3ccc(Br)cc3)c2)c(-c2cccc(O)c2)n1
GI50 [1]: 1.66 µM | TGI [1]: 3.24 µM | GI50 [2]: 2.31 µM | TGI [2]: 5.59 µM | GI50 [3]: 2.11 µM | TGI [3]: 4.37 µM | GI50 [4]: 1.85 µM | TGI [4]: 3.79 µM | GI50 [5]: 2.53 µM | TGI [5]: 6.26 µM | GI50 [6]: 2.01 µM | TGI [6]: 4.33 µM | GI50 [7]: 1.6 µM | TGI [7]: 4.08 µM | GI50 [8]: 1.91 µM | TGI [8]: 3.93 µM

C/C(=C(/c1ccc(O)cc1)c1ccc(Cl)cc1)c1ccccc1
GI50 [1]: 0.459 µM | TGI [1]: 1 µM | GI50 [2]: 2.75 µM | TGI [2]: 7.9 µM | GI50 [3]: 0.76 µM | TGI [3]: 2.18 µM | GI50 [4]: 2.44 µM | TGI [4]: 5.96 µM | GI50 [5]: 1.04 µM | TGI [5]: 3.76 µM | GI50 [6]: 0.822 µM | TGI [6]: 2.77 µM | GI50 [7]: 0.721 µM | TGI [7]: 2.56 µM | GI50 [8]: 0.671 µM | TGI [8]: 2.22 µM
